Key:
[1] = female, Beagle, dog, in vivo
EPHA1 = target: T1, EPHA1 (Homo sapiens, UniProt P21709); experiment: Kinase panel (Millipore); assay type: biochemical; conditions: 1 µM, ATP at Km
T1 construct: purchased Millipore (KinaseProfiler) kinase panel

FGFR4 = FGFR4 (Homo sapiens, UniProt P22455); experiment: Kinase panel (Millipore); assay type: biochemical; conditions: 1 µM, ATP at Km
alpha 2A (h) = alpha 2A (h) (Homo sapiens, UniProt P08913); experiment: biochemical; conditions: read-out: % Inhibition of Control Specific Binding
TLK2 = target: T2, TLK2 (Homo sapiens, UniProt Q86UE8); experiment: Kinase panel (Millipore); assay type: biochemical; conditions: 1 µM, ATP at Km
T2 construct: purchased Millipore (KinaseProfiler) kinase panel

EPHB4 = target: T3, EPHB4 (Homo sapiens, UniProt P54760); experiment: Kinase panel (Millipore); assay type: biochemical; conditions: 1 µM, ATP at Km
T3 construct: purchased Millipore (KinaseProfiler) kinase panel

DYRK2 = DYRK2 (Homo sapiens, UniProt Q92630); experiment: Kinase panel (Millipore); assay type: biochemical; conditions: 1 µM, ATP at Km
HIPK2 = target: T4, HIPK2 (Homo sapiens, UniProt Q9H2X6); experiment: Kinase panel (Millipore); assay type: biochemical; conditions: 1 µM, ATP at Km
T4 construct: purchased Millipore (KinaseProfiler) kinase panel

HASPIN = target: T5, HASPIN (Homo sapiens, UniProt Q8TF76); experiment: Kinase panel (Millipore); assay type: biochemical; conditions: 1 µM, ATP at Km
T5 construct: purchased Millipore (KinaseProfiler) kinase panel

[2] = target: GABAA1 (h) (alpha 1,beta 2,gamma 2) (Homo sapiens, UniProt P14867+P47870); experiment: biochemical; conditions: read-out: % Inhibition of Control Specific Binding
PAF (h) = target: T6, PAF (h) (Homo sapiens, UniProt P25105); experiment: CEREP binding assay; conditions: agonist radioligand, read-out: % Inhibition of Control Specific Binding
T6 construct: purchased Millipore (KinaseProfiler) kinase panel

in vivo = conditions: female, NMRI, mouse, po, 0.5 mg/kg
SIK = target: T7, SIK (Homo sapiens, UniProt P57059); experiment: Kinase panel (Millipore); assay type: biochemical; conditions: 1 µM, ATP at Km
T7 construct: purchased Millipore (KinaseProfiler) kinase panel

FGFR2 = FGFR2 (Homo sapiens, UniProt P21802); experiment: Kinase panel (Millipore); assay type: biochemical; conditions: 1 µM, ATP at Km
DAPK2 = DAPK2 (Homo sapiens, UniProt Q9UIK4); experiment: Kinase panel (Millipore); assay type: biochemical; conditions: 1 µM, ATP at Km
BTK(R28H) = BTK(R28H) (Homo sapiens, UniProt Q06187, R28H); conditions: 1 µM, ATP at Km
MARK1 = MARK1 (Homo sapiens, UniProt Q9P0L2); experiment: Kinase panel (Millipore); assay type: biochemical; conditions: 1 µM, ATP at Km
A1 (h) = A1 (h) (Homo sapiens, UniProt P30542); experiment: CEREP binding assay; conditions: agonist radioligand, read-out: % Inhibition of Control Specific Binding
TIE2(R849W) = TIE2(R849W) (Homo sapiens, UniProt Q02763, R849W); conditions: 1 µM, ATP at Km
CDK6/CYCLIND3 = CDK6/CYCLIND3 (Homo sapiens, UniProt Q00534); conditions: 1 µM, ATP at Km
CK1DELTA = CK1DELTA (Homo sapiens, UniProt P48730); experiment: Kinase panel (Millipore); assay type: biochemical; conditions: 1 µM, ATP at Km
CKIT(D816H) = CKIT(D816H) (Homo sapiens, UniProt P10721, D816H); conditions: 1 µM, ATP at Km
EGFR(L861Q) = EGFR(L861Q) (Homo sapiens, UniProt P00533, L861Q); conditions: 1 µM, ATP at Km
FAK = FAK (Homo sapiens, UniProt Q05397); experiment: Kinase panel (Millipore); assay type: biochemical; conditions: 1 µM, ATP at Km
alpha 1B (h) = alpha 1B (h) (Homo sapiens, UniProt P35368); experiment: biochemical; conditions: read-out: % Inhibition of Control Specific Binding
A2B (h) = A2B (h) (Homo sapiens, UniProt P29275); experiment: biochemical; conditions: read-out: % Inhibition of Control Specific Binding
[3] = tested on: Ca2+ channel (L, dihydropyridine site); conditions: 10 µM, antagonist radioligand
BTK = BTK (Homo sapiens, UniProt Q06187); experiment: Kinase panel (Millipore); assay type: biochemical; conditions: 1 µM, ATP at Km
PI3K GAMMA = PI3K GAMMA (Homo sapiens, UniProt P48736); experiment: Kinase panel (Millipore); assay type: biochemical; conditions: 1 µM, ATP at Km
MAPKAP-K3 = target: T8, MAPKAP-K3 (Homo sapiens, UniProt Q16644); experiment: Kinase panel (Millipore); assay type: biochemical; conditions: 1 µM, ATP at Km
T8 construct: purchased Millipore (KinaseProfiler) kinase panel

PI3K DELTA = PI3K DELTA (Homo sapiens, UniProt O00329); experiment: Kinase panel (Millipore); assay type: biochemical; conditions: 1 µM, ATP at Km
PKCMU = target: T9, PKCMU (Homo sapiens, UniProt Q15139); experiment: Kinase panel (Millipore); assay type: biochemical; conditions: 1 µM, ATP at Km
T9 construct: purchased Millipore (KinaseProfiler) kinase panel

FGFR1(V561M) = FGFR1(V561M) (Homo sapiens, UniProt P11362, V561M); conditions: 1 µM, ATP at Km
YES = YES (Homo sapiens, UniProt P07947); experiment: Kinase panel (Millipore); assay type: biochemical; conditions: 1 µM, ATP at Km
[4] = tested on: glycine (strychnine-insensitive); conditions: 10 µM, antagonist radioligand
MSK1 = MSK1 (Homo sapiens, UniProt O75582); experiment: Kinase panel (Millipore); assay type: biochemical; conditions: 1 µM, ATP at Km
PKCETA = target: T10, PKCETA (Homo sapiens, UniProt P24723); experiment: Kinase panel (Millipore); assay type: biochemical; conditions: 1 µM, ATP at Km
T10 construct: purchased Millipore (KinaseProfiler) kinase panel

H3 (h) = target: T11, H3 (h) (Homo sapiens, UniProt Q9Y5N1); experiment: CEREP binding assay; conditions: agonist radioligand, read-out: % Inhibition of Control Specific Binding
T11 construct: purchased Millipore (KinaseProfiler) kinase panel

NLK = target: T12, NLK (Homo sapiens, UniProt Q9UBE8); experiment: Kinase panel (Millipore); assay type: biochemical; conditions: 1 µM, ATP at Km
T12 construct: purchased Millipore (KinaseProfiler) kinase panel

NEK6 = target: T13, NEK6 (Homo sapiens, UniProt Q9HC98); experiment: Kinase panel (Millipore); assay type: biochemical; conditions: 1 µM, ATP at Km
T13 construct: purchased Millipore (KinaseProfiler) kinase panel

SYK = SYK (Homo sapiens, UniProt P43405); experiment: Kinase panel (Millipore); assay type: biochemical; conditions: 1 µM, ATP at Km
EGFR(T790M,L858R) = EGFR(T790M,L858R) (Homo sapiens, UniProt P00533, L858R/T790M); conditions: 1 µM, ATP at Km
ALK = target: T14, ALK (Homo sapiens, UniProt Q9UM73); experiment: Kinase panel (Millipore); assay type: biochemical; conditions: 1 µM, ATP at Km
T14 construct: purchased Millipore (KinaseProfiler) kinase panel

Chain of BTK (Q06187 whole entry): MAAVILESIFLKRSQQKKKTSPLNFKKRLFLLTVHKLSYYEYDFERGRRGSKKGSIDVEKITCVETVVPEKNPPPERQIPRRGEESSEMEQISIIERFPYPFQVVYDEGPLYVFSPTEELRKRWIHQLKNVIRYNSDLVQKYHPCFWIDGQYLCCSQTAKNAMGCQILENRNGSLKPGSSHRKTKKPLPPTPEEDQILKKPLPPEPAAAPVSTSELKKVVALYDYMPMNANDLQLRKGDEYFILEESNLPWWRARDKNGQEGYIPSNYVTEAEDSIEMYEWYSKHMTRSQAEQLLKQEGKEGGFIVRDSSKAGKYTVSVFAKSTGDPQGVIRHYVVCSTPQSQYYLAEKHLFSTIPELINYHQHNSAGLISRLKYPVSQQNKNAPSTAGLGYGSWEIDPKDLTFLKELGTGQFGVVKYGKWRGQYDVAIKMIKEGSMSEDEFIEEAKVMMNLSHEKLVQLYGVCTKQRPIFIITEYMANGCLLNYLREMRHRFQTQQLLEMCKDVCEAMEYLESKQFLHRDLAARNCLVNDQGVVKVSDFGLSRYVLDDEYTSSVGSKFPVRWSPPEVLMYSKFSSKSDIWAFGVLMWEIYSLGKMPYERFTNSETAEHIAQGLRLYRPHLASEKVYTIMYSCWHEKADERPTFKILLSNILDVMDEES
Chain of TIE2(R849W) (Q02763 771-1124 R849W limits assumed): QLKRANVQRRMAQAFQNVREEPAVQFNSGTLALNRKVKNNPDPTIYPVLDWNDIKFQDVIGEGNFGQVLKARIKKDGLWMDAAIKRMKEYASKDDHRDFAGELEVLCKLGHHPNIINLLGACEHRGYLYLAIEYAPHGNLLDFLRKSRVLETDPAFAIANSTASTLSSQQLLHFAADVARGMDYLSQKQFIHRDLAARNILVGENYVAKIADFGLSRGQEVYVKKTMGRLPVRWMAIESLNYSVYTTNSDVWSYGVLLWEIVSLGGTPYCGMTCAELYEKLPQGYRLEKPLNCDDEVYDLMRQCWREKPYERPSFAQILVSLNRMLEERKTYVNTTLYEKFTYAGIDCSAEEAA
T1 sequence (P21709 26-976): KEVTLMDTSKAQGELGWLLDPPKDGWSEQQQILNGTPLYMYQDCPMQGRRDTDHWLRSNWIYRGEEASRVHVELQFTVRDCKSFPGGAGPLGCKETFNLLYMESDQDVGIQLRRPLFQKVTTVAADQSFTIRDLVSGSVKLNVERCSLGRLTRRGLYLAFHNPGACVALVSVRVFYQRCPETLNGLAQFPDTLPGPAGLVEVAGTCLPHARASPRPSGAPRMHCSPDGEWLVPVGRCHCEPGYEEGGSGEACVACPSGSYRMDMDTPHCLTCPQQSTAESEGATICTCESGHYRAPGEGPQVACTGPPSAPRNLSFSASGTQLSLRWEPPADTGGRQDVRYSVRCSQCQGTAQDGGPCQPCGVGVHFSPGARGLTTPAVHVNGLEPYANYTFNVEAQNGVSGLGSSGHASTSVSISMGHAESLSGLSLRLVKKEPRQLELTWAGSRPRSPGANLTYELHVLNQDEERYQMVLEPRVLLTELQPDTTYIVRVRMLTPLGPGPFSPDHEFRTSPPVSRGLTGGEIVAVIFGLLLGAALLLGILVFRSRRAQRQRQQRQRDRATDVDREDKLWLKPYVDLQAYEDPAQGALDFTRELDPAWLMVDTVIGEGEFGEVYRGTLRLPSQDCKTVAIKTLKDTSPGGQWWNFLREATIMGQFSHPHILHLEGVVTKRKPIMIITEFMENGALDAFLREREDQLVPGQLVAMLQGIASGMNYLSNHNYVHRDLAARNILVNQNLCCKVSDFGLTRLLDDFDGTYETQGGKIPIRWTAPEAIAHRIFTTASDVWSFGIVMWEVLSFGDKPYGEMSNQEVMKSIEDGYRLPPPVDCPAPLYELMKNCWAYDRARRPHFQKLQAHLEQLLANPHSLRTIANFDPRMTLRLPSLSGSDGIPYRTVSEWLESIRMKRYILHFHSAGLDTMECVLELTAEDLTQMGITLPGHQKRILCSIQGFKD
T2 sequence (Q86UE8 whole entry): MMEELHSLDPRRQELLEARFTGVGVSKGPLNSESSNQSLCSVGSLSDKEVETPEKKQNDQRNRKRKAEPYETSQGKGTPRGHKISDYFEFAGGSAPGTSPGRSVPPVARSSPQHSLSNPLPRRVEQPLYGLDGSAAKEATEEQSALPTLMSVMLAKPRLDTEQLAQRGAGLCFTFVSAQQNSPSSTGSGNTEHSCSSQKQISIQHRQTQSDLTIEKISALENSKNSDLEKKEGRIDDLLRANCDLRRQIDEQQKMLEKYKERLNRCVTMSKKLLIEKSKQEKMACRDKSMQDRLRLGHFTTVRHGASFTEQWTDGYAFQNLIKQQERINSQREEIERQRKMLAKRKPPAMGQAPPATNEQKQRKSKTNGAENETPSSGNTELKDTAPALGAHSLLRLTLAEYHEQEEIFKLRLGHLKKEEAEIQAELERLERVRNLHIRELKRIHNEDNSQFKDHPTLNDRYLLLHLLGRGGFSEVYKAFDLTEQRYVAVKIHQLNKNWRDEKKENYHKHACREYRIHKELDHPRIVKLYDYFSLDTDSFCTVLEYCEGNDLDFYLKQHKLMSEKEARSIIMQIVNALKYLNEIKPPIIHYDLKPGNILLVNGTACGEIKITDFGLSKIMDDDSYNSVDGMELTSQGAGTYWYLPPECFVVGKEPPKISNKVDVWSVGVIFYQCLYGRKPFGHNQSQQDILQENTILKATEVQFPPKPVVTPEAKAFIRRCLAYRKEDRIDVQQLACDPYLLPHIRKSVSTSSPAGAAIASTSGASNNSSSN
Chain of DYRK2 (Q92630 whole entry): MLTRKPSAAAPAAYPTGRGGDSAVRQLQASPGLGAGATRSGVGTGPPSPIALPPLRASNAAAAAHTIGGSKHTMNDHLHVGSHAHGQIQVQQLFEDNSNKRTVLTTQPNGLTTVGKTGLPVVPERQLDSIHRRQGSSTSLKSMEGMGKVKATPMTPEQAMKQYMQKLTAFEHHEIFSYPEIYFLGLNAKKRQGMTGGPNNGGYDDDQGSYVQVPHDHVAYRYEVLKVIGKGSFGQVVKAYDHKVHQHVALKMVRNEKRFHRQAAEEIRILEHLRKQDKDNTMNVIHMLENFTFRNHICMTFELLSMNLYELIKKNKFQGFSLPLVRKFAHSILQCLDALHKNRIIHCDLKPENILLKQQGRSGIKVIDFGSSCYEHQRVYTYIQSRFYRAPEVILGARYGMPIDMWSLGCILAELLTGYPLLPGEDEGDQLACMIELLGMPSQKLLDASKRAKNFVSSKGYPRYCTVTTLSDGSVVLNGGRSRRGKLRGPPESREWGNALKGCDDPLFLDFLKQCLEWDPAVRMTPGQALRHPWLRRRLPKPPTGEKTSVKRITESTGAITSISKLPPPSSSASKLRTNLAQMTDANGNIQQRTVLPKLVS
Chain of GABAA1 (h) (alpha 1,beta 2,gamma 2) (P14867 28-456): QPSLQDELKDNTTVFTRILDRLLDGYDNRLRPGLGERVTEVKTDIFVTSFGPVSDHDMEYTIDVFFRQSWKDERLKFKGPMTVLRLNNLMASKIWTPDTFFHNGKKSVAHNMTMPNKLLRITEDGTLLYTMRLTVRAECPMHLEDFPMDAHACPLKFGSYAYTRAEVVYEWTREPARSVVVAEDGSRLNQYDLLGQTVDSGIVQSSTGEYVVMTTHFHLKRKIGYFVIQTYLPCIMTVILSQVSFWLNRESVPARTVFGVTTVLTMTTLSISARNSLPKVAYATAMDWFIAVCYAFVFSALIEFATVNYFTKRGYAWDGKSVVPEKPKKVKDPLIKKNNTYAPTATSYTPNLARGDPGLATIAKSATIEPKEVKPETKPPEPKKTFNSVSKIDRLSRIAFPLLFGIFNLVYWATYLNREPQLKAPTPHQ
Chain of GABAA1 (h) (alpha 1,beta 2,gamma 2) (P47870 25-512 limits assumed): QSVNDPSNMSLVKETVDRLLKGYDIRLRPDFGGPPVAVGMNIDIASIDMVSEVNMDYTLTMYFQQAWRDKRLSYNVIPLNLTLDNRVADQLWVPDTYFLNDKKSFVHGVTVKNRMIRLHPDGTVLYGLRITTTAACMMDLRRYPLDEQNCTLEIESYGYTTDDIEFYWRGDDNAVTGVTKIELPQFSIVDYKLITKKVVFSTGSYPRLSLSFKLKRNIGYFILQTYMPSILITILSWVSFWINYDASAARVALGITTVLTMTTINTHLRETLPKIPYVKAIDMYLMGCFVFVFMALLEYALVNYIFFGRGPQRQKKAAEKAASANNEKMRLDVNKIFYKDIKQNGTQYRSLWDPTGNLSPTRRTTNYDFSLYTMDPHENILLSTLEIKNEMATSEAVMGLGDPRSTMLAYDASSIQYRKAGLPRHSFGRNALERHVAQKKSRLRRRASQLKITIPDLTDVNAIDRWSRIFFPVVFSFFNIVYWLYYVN
Chain of GABAA1 (h) (alpha 1,beta 2,gamma 2) (P18507 40-475 partner): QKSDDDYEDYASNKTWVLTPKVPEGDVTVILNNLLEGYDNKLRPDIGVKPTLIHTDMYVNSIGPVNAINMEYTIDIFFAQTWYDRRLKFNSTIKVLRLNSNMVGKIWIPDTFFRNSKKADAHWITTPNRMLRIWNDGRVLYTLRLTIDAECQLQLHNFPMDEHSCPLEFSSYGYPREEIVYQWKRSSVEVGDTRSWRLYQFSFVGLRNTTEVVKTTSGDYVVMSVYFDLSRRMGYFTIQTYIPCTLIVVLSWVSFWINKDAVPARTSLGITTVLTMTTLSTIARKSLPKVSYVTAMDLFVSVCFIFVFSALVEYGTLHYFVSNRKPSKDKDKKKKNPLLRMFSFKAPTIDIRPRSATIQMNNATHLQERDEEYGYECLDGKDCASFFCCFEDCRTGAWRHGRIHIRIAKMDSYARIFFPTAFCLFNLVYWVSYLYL
Chain of A1 (h) (P30542 whole entry): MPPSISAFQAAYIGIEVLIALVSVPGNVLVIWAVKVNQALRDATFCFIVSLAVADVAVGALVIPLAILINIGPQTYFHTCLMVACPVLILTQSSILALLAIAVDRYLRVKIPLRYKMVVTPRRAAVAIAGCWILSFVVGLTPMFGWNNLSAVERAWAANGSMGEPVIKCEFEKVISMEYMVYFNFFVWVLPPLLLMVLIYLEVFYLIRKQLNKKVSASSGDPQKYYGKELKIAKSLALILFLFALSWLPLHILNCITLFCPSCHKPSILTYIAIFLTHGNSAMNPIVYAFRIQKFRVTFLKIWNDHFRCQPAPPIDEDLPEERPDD

For `Cn1ncc2cc(-c3cnc(N)c(Cl)c3N3CCC4(CCNC4=O)CC3)ccc21` [Compound 109, 8-(2-Amino-3-chloro-5-(1-methyl-1H-indazol-5-yl)pyridin-4-yl)-2,8-diazaspiro[4.5]decan-1-one], the LBF [1] was 43%, the “% effect” value (EPHA1) was 4% and the “% effect” value (FGFR4) was 6%. For the same compound, the inhibition at 10 µM (alpha 2A (h)) was 11%, the “% effect” value (TLK2) was -5% and the “% effect” value (EPHB4) was -3%. For the same compound, the “% effect” value (DYRK2) was -9%, the “% effect” value (HIPK2) was 2% and the “% effect” value (HASPIN) was 26%. The inhibition at 10 µM [2] was -12%, the inhibition at 10 µM (PAF (h)) was -4% and the bioavailability (in vivo) was 30%. For the same compound, the “% effect” value (SIK) was -1%, the “% effect” value (FGFR2) was 4% and the “% effect” value (DAPK2) was -7%. For the same compound, the “% effect” value (BTK(R28H)) was 2%, the “% effect” value (MARK1) was 17% and the inhibition at 10 µM (A1 (h)) was -4%. For the same compound, the “% effect” value (TIE2(R849W)) was -9%, the “% effect” value (CDK6/CYCLIND3) was 5% and the “% effect” value (CK1DELTA) was 18%. The “% effect” value (CKIT(D816H)) was 1%, the “% effect” value (EGFR(L861Q)) was 11% and the “% effect” value (FAK) was 6%. For the same compound, the inhibition at 10 µM (alpha 1B (h)) was 15%, the inhibition at 10 µM (A2B (h)) was -7% and the “% Inhibition of Control Specific Binding” value [3] was -16%. The “% effect” value (BTK) was 6%, the “% effect” value (PI3K GAMMA) was 7% and the “% effect” value (MAPKAP-K3) was 5%. For the same compound, the “% effect” value (PI3K DELTA) was 6%, the “% effect” value (PKCMU) was 5% and the “% effect” value (FGFR1(V561M)) was -25%. The “% effect” value (YES) was -2%, the “% Inhibition of Control Specific Binding” value [4] was -3% and the “% effect” value (MSK1) was -3%. The “% effect” value (PKCETA) was 6%, the inhibition at 10 µM (H3 (h)) was 3% and the “% effect” value (NLK) was -5%. For the same compound, the “% effect” value (NEK6) was 4%, the “% effect” value (SYK) was 2% and the “% effect” value (EGFR(T790M,L858R)) was 0%. The “% effect” value (ALK) was 4%.

Source: publication PMC5362750, “Discovery of Potent, Selective, and Orally Bioavailable Small-Molecule Modulators of the Mediator Complex-Associated Kinases CDK8 and CDK19” (Journal of Medicinal Chemistry, 2016)
